Test results from publication PMC5218480 (PLoS ONE, 2017).

System: MV-4-11 cells
Test: Gene expression microarray analysis (Affymetrix PrimeView) and GSEA
Type: cell-based, human
Set-up: RFU PODN (11730768_x_at) / Fold change /veh PODN (11730768_x_at) / RFU LINC00158 (11744669_a_at) / Fold change /veh LINC00158 (11744669_a_at) / RFU DUSP10 (11751237_a_at) / Fold change /veh DUSP10 (11751237_a_at) / RFU ID3 (11757404_x_at) / Fold change /veh ID3 (11757404_x_at) / RFU PLEKHG5 (11737974_s_at) / Fold change /veh PLEKHG5 (11737974_s_at) / RFU LRRC4B (11730491_at) / Fold change /veh LRRC4B (11730491_at) / RFU GIMAP4 (11747438_a_at) / Fold change /veh GIMAP4 (11747438_a_at) / RFU KRT8 (11758183_x_at) / Fold change /veh KRT8 (11758183_x_at) / RFU CNN1 (11734310_a_at) / Fold change /veh CNN1 (11734310_a_at) / RFU VPS37D (11726825_at) / Fold change /veh VPS37D (11726825_at) / RFU C10orf10 (11716522_x_at) / Fold change /veh C10orf10 (11716522_x_at) / RFU KIR2DL2 /// KIR2DL4 /// KIR2DL5A /// KIR2DL5B /// KIR2DS1 /// KIR2DS2 /// KIR2DS3 /// KIR2DS4 /// KIR3DL3 /// KIR3DL3 /// KIR3DS1 (11738374_at) / Fold change /veh KIR2DL2 /// KIR2DL4 /// KIR2DL5A /// KIR2DL5B /// KIR2DS1 /// KIR2DS2 /// KIR2DS3 /// KIR2DS4 /// KIR3DL3 /// KIR3DL3 /// KIR3DS1 (11738374_at) / RFU C1QL1 (11718748_at) / Fold change /veh C1QL1 (11718748_at) / RFU TMPRSS4 (11747572_a_at) / Fold change /veh TMPRSS4 (11747572_a_at) / RFU HAMP (11756126_x_at) / Fold change /veh HAMP (11756126_x_at) / RFU RNFT2 (11725882_a_at) / Fold change /veh RNFT2 (11725882_a_at) / RFU NR4A2 (11747474_a_at) / Fold change /veh NR4A2 (11747474_a_at) / RFU ABCC12 (11746883_a_at) / Fold change /veh ABCC12 (11746883_a_at) / RFU TMEM136 (11760407_x_at) / Fold change /veh TMEM136 (11760407_x_at) / RFU CLDN22 /// WWC2 (11732394_at) / Fold change /veh CLDN22 /// WWC2 (11732394_at) / RFU HLA-DPB1 (11760878_x_at) / Fold change /veh HLA-DPB1 (11760878_x_at) / RFU SPINT1 (11716480_a_at) / Fold change /veh SPINT1 (11716480_a_at) / RFU GAP43 (11754022_s_at) / Fold change /veh GAP43 (11754022_s_at) / RFU A4GNT (11735810_at) / Fold change /veh A4GNT (11735810_at) / RFU PRB3 (11715151_x_at) / Fold change /veh PRB3 (11715151_x_at) / RFU TUBB4B (11761932_at) / Fold change /veh TUBB4B (11761932_at) / RFU CAPN14 (11732068_a_at) / Fold change /veh CAPN14 (11732068_a_at) / RFU TMCC2 (11721928_a_at) / Fold change /veh TMCC2 (11721928_a_at) / RFU IRGQ (11745062_a_at) / Fold change /veh IRGQ (11745062_a_at) / RFU FAM174B (11720279_a_at) / Fold change /veh FAM174B (11720279_a_at) / RFU TMPRSS4 (11748680_a_at) / Fold change /veh TMPRSS4 (11748680_a_at) / RFU FAM212B (11763350_a_at) / Fold change /veh FAM212B (11763350_a_at) / RFU PLEKHG5 (11743358_a_at) / Fold change /veh PLEKHG5 (11743358_a_at) / RFU ZSCAN30 (11745921_a_at) / Fold change /veh ZSCAN30 (11745921_a_at) / RFU CMKLR1 (11741424_a_at) / Fold change /veh CMKLR1 (11741424_a_at) / RFU LOC101060620 /// MAPK8IP1 (11723275_at) / Fold change /veh LOC101060620 /// MAPK8IP1 (11723275_at) / RFU SPTSSB (11747773_x_at) / Fold change /veh SPTSSB (11747773_x_at) / RFU PRSS12 (11739890_at) / Fold change /veh PRSS12 (11739890_at) / RFU BIN1 (11741810_x_at) / Fold change /veh BIN1 (11741810_x_at) / RFU WNT11 (11732464_a_at) / Fold change /veh WNT11 (11732464_a_at) / RFU C10orf10 (11716521_a_at) / Fold change /veh C10orf10 (11716521_a_at) / RFU C5orf56 (11738089_at) / Fold change /veh C5orf56 (11738089_at) / RFU CYB561 (11721691_x_at) / Fold change /veh CYB561 (11721691_x_at) / RFU ANKRD19P (11752326_a_at) / Fold change /veh ANKRD19P (11752326_a_at) / RFU OR2T12 /// OR2T33 /// OR2T8 (11738714_s_at) / Fold change /veh OR2T12 /// OR2T33 /// OR2T8 (11738714_s_at) / RFU VCAN (11748164_a_at) / Fold change /veh VCAN (11748164_a_at) / RFU JSRP1 (11732532_at) / Fold change /veh JSRP1 (11732532_at) / RFU KRTAP10-11 (11738290_x_at) / Fold change /veh KRTAP10-11 (11738290_x_at) / RFU MYO3A (11730013_a_at) / Fold change /veh MYO3A (11730013_a_at) / RFU EBF3 (11725865_a_at) / Fold change /veh EBF3 (11725865_a_at) / RFU CAMK2N1 (11719241_x_at) / Fold change /veh CAMK2N1 (11719241_x_at) / RFU C5orf56 (11738088_a_at) / Fold change /veh C5orf56 (11738088_a_at) / RFU OLFML3 (11715873_a_at) / Fold change /veh OLFML3 (11715873_a_at) / RFU LOC100653217 /// NTM (11731650_a_at) / Fold change /veh LOC100653217 /// NTM (11731650_a_at) / RFU MAPK11 (11762145_a_at) / Fold change /veh MAPK11 (11762145_a_at) / RFU FIZ1 (11724087_x_at) / Fold change /veh FIZ1 (11724087_x_at) / RFU OASL (11726364_x_at) / Fold change /veh OASL (11726364_x_at) / RFU SOX15 (11748057_x_at) / Fold change /veh SOX15 (11748057_x_at) / RFU CD79A (11719716_a_at) / Fold change /veh CD79A (11719716_a_at) / RFU HIST1H1D (11736915_at) / Fold change /veh HIST1H1D (11736915_at) / RFU CASKIN2 (11723855_a_at) / Fold change /veh CASKIN2 (11723855_a_at) / RFU LOC730098 (11760151_x_at) / Fold change /veh LOC730098 (11760151_x_at) / RFU OR4N2 (11742367_at) / Fold change /veh OR4N2 (11742367_at) / RFU PRRT2 (11749266_a_at) / Fold change /veh PRRT2 (11749266_a_at) / RFU SNX32 (11753110_a_at) / Fold change /veh SNX32 (11753110_a_at) / RFU CDHR5 (11726645_a_at) / Fold change /veh CDHR5 (11726645_a_at) / RFU RCAN1 (11760418_a_at) / Fold change /veh RCAN1 (11760418_a_at) / RFU FAM167A (11723789_a_at) / Fold change /veh FAM167A (11723789_a_at) / RFU FAM26E (11764081_at) / Fold change /veh FAM26E (11764081_at) / RFU ISYNA1 (11749810_s_at) / Fold change /veh ISYNA1 (11749810_s_at) / RFU ACY1 (11761880_at) / Fold change /veh ACY1 (11761880_at) / RFU 11764098_at / Fold change /veh 11764098_at / RFU SAMD14 (11745864_x_at) / Fold change /veh SAMD14 (11745864_x_at) / RFU NPB (11741838_a_at) / Fold change /veh NPB (11741838_a_at) / RFU TMPRSS6 (11731388_a_at) / Fold change /veh TMPRSS6 (11731388_a_at) / RFU KRTAP10-2 (11738614_at) / Fold change /veh KRTAP10-2 (11738614_at) / RFU ARHGAP8 /// PRR5-ARHGAP8 (11727945_x_at) / Fold change /veh ARHGAP8 /// PRR5-ARHGAP8 (11727945_x_at) / RFU KRTAP5-7 /// NADSYN1 (11734609_at) / Fold change /veh KRTAP5-7 /// NADSYN1 (11734609_at) / RFU RASL12 (11751679_a_at) / Fold change /veh RASL12 (11751679_a_at) / RFU CDKN2B (11736163_a_at) / Fold change /veh CDKN2B (11736163_a_at) / RFU PRF1 (11729649_at) / Fold change /veh PRF1 (11729649_at) / RFU, ZNF638 /// ZNF638-IT1 / Fold change vs veh, ZNF638 /// ZNF638-IT1 / RFU, PANK3 / Fold change vs veh, PANK3 / RFU, SH3YL1 / Fold change vs veh, SH3YL1 / RFU, ZEB2 / Fold change vs veh, ZEB2 / RFU, NRIP1 / Fold change vs veh, NRIP1 / RFU, PTTG1IP / Fold change vs veh, PTTG1IP / RFU, CAPN2 / Fold change vs veh, CAPN2 / RFU, MED14 / Fold change vs veh, MED14 / RFU, SNORA58 / Fold change vs veh, SNORA58 / RFU, C1orf63 / Fold change vs veh, C1orf63 / RFU, LRRFIP1 / Fold change vs veh, LRRFIP1 / RFU, NDUFAF7 / Fold change vs veh, NDUFAF7 / RFU, SLC12A2 / Fold change vs veh, SLC12A2 / RFU, IBTK / Fold change vs veh, IBTK / RFU, ESF1 / Fold change vs veh, ESF1 / Fold change vs veh, TMEM50B / RFU, TAOK1 / Fold change vs veh, TAOK1 / RFU, ACBD3 / Fold change vs veh, ACBD3 / RFU, TMA16 / Fold change vs veh, TMA16 / RFU, RWDD3 / Fold change vs veh, RWDD3 / RFU, BCAT1 / Fold change vs veh, BCAT1 / RFU, EDEM3 / Fold change vs veh, EDEM3 / RFU, TMEM33 / Fold change vs veh, TMEM33 / RFU, WDR75 / Fold change vs veh, WDR75 / RFU, AHCTF1 / Fold change vs veh, AHCTF1 / RFU, TFRC / Fold change vs veh, TFRC / RFU, ZDHHC17 / Fold change vs veh, ZDHHC17 / RFU, NOM1 / Fold change vs veh, NOM1 / RFU, ARL8B / Fold change vs veh, ARL8B / RFU, ZBTB11 / Fold change vs veh, ZBTB11 / RFU, TAMM41 / Fold change vs veh, TAMM41 / RFU, KIAA1704 /// LOC100996395 / Fold change vs veh, KIAA1704 /// LOC100996395 / RFU, ING1 / Fold change vs veh, ING1 / RFU, TRMT61B / Fold change vs veh, TRMT61B / RFU, FUBP3 / Fold change vs veh, FUBP3 / RFU, TP53 / Fold change vs veh, TP53 / RFU, TNKS2 / Fold change vs veh, TNKS2 / RFU, ZFP14 / Fold change vs veh, ZFP14 / RFU, ACTR2 / Fold change vs veh, ACTR2 / RFU, PPP3R1 / Fold change vs veh, PPP3R1 / RFU, PIK3R1 / Fold change vs veh, PIK3R1 / RFU, HNRNPA1 / Fold change vs veh, HNRNPA1 / RFU, RNF170 / Fold change vs veh, RNF170 / RFU, ZNF28 / Fold change vs veh, ZNF28 / RFU, RNGTT / Fold change vs veh, RNGTT / RFU, OGT / Fold change vs veh, OGT / RFU, BRD1 / Fold change vs veh, BRD1 / RFU, MARS / Fold change vs veh, MARS / RFU, ZNF655 / Fold change vs veh, ZNF655 / RFU, FAHD1 / Fold change vs veh, FAHD1 / RFU, BDP1 / Fold change vs veh, BDP1 / RFU, LRRCC1 / Fold change vs veh, LRRCC1 / RFU, ARID1A / Fold change vs veh, ARID1A / RFU, ZNF146 / Fold change vs veh, ZNF146 / RFU, ZNF330 / Fold change vs veh, ZNF330 / RFU, GPN3 / Fold change vs veh, GPN3 / RFU, C9orf123 / Fold change vs veh, C9orf123 / RFU, N4BP2L2 / Fold change vs veh, N4BP2L2 / RFU, ARFIP1 / Fold change vs veh, ARFIP1 / RFU, FAM179B / Fold change vs veh, FAM179B / RFU, BCL10 / Fold change vs veh, BCL10 / RFU, UHRF1BP1L / Fold change vs veh, UHRF1BP1L / RFU, BET1 / Fold change vs veh, BET1 / RFU, CNOT2 / Fold change vs veh, CNOT2 / RFU, ZNF268 / Fold change vs veh, ZNF268 / Fold change vs veh, ZNF507 / RFU, DGCR2 / Fold change vs veh, DGCR2 / RFU, WDSUB1 / Fold change vs veh, WDSUB1 / Fold change vs veh, HSP90B1 /// MIR3652 / RFU, ADSS / Fold change vs veh, ADSS / RFU, GK / Fold change vs veh, GK / RFU, ZNF148 / Fold change vs veh, ZNF148 / RFU, TAF9 / Fold change vs veh, TAF9 / RFU, SLC1A5 / Fold change vs veh, SLC1A5 / RFU, SLMO2 / Fold change vs veh, SLMO2 / RFU, ABCC4 / Fold change vs veh, ABCC4 / RFU, LOC101060439 /// RAP1B / Fold change vs veh, LOC101060439 /// RAP1B / RFU, RFX7 / Fold change vs veh, RFX7 / RFU, GTPBP10 / Fold change vs veh, GTPBP10 / RFU, CNEP1R1 / Fold change vs veh, CNEP1R1 / RFU, BIVM-ERCC5 /// ERCC5 / Fold change vs veh, BIVM-ERCC5 /// ERCC5 / RFU, ILF3 / Fold change vs veh, ILF3 / RFU 11762660_at / Fold change /veh 11762660_at / RFU VCAN (11757783_s_at) / Fold change /veh VCAN (11757783_s_at) / RFU DDX43 (11728927_at) / Fold change /veh DDX43 (11728927_at) / RFU KRT8 (11758188_x_at) / Fold change /veh KRT8 (11758188_x_at) / RFU NKD1 (11759106_at) / Fold change /veh NKD1 (11759106_at) / RFU SRD5A1 (11742802_a_at) / Fold change /veh SRD5A1 (11742802_a_at) / RFU TPSAB1 /// TPSB2 (11721975_s_at) / Fold change /veh TPSAB1 /// TPSB2 (11721975_s_at) / RFU GSTM3 (11746129_a_at) / Fold change /veh GSTM3 (11746129_a_at) / RFU IL23R (11737362_x_at) / Fold change /veh IL23R (11737362_x_at) / RFU TMEM51 (11727254_a_at) / Fold change /veh TMEM51 (11727254_a_at) / RFU PIWIL2 (11732686_x_at) / Fold change /veh PIWIL2 (11732686_x_at) / RFU ORM1 (11744905_x_at) / Fold change /veh ORM1 (11744905_x_at) / RFU CCDC152 (11743942_at) / Fold change /veh CCDC152 (11743942_at) / RFU ECM1 (11717891_a_at) / Fold change /veh ECM1 (11717891_a_at) / RFU IL23R (11748794_a_at) / Fold change /veh IL23R (11748794_a_at) / RFU TNFAIP8L3 (11732012_x_at) / Fold change /veh TNFAIP8L3 (11732012_x_at) / RFU MBOAT4 (11741988_at) / Fold change /veh MBOAT4 (11741988_at) / RFU 11764193_at / Fold change /veh 11764193_at / RFU TMEM53 (11763286_at) / Fold change /veh TMEM53 (11763286_at) / RFU MAGEB2 (11727129_at) / Fold change /veh MAGEB2 (11727129_at) / RFU TMEM200A (11744735_a_at) / Fold change /veh TMEM200A (11744735_a_at) / RFU CCDC152 (11751479_a_at) / Fold change /veh CCDC152 (11751479_a_at) / RFU FAM211A (11726209_a_at) / Fold change /veh FAM211A (11726209_a_at) / RFU RGS16 (11746705_a_at) / Fold change /veh RGS16 (11746705_a_at) / RFU VCAN (11755009_s_at) / Fold change /veh VCAN (11755009_s_at) / RFU RHOB (11743442_s_at) / Fold change /veh RHOB (11743442_s_at) / RFU RGS16 (11720943_a_at) / Fold change /veh RGS16 (11720943_a_at) / RFU RGS16 (11720944_at) / Fold change /veh RGS16 (11720944_at) / RFU, VPS4B / Fold change vs veh, VPS4B / RFU, CREB1 / Fold change vs veh, CREB1 / RFU, DNAJC13 / Fold change vs veh, DNAJC13 / RFU, GNAQ / Fold change vs veh, GNAQ / RFU, CDK5R1 / Fold change vs veh, CDK5R1 / RFU, ZRANB3 / Fold change vs veh, ZRANB3 / RFU, CUL4A / Fold change vs veh, CUL4A / RFU, CCNY / Fold change vs veh, CCNY / RFU, UFL1 / Fold change vs veh, UFL1 / RFU, COG3 / Fold change vs veh, COG3 / RFU, DIAPH2 / Fold change vs veh, DIAPH2 / RFU, SKA2 / Fold change vs veh, SKA2 / RFU, AFF3 / Fold change vs veh, AFF3 / RFU, LMF1 / Fold change vs veh, LMF1 / RFU, IPO11 / Fold change vs veh, IPO11 / RFU, DFFB / Fold change vs veh, DFFB / RFU, FOXP1 / Fold change vs veh, FOXP1 / RFU, CARD8 / Fold change vs veh, CARD8 / RFU, STRN3 / Fold change vs veh, STRN3 / RFU, ADK / Fold change vs veh, ADK / RFU, RASSF2 / Fold change vs veh, RASSF2 / RFU, WIPF1 / Fold change vs veh, WIPF1 / RFU, LARP1B / Fold change vs veh, LARP1B / RFU, RASA1 / Fold change vs veh, RASA1 / RFU, RB1 / Fold change vs veh, RB1 / RFU, PPFIA1 / Fold change vs veh, PPFIA1 / RFU, MAT2A / Fold change vs veh, MAT2A / RFU, CCT5 / Fold change vs veh, CCT5 / RFU, WDR92 / Fold change vs veh, WDR92 / RFU, CUX1 / Fold change vs veh, CUX1 / RFU, TTC7A / Fold change vs veh, TTC7A / RFU, TMEM135 / Fold change vs veh, TMEM135 / RFU, DEPTOR / Fold change vs veh, DEPTOR / RFU, CPM / Fold change vs veh, CPM / RFU, DNAJB6 / Fold change vs veh, DNAJB6 / RFU, CACNA2D3 / Fold change vs veh, CACNA2D3 / RFU, DTX4 / Fold change vs veh, DTX4 / RFU, TFCP2 / Fold change vs veh, TFCP2 / RFU, GMCL1 /// GMCL1P1 / Fold change vs veh, GMCL1 /// GMCL1P1 / RFU, AEBP2 / Fold change vs veh, AEBP2 / RFU, SNHG1 /// SNORD22 /// SNORD25 /// SNORD26 /// SNORD27 /// SNORD28 /// SNORD29 /// SNORD31 / Fold change vs veh, SNHG1 /// SNORD22 /// SNORD25 /// SNORD26 /// SNORD27 /// SNORD28 /// SNORD29 /// SNORD31 / Fold change (Aza/veh), C12orf56 (ProbeSet 11735607_a_at) / Fold change (ACY-1035/veh), C12orf56 (ProbeSet 11735607_a_at) / Fold change (Aza/veh), FGFR1OP (ProbeSet 11751329_s_at) / Fold change (ACY-1035/veh), FGFR1OP (ProbeSet 11751329_s_at) / Fold change (Aza/veh), VPS36 (ProbeSet 11739960_a_at) / Fold change (ACY-1035/veh), VPS36 (ProbeSet 11739960_a_at) / RFU SYPL1 (11715823_x_at) / Fold change /veh SYPL1 (11715823_x_at) / RFU IGFBP7 (11715501_s_at) / Fold change /veh IGFBP7 (11715501_s_at) / RFU REEP3 (11722064_at) / Fold change /veh REEP3 (11722064_at) / RFU IGLL1 (11728026_x_at) / Fold change /veh IGLL1 (11728026_x_at): dose or concentration left out as unconfirmed
Conditions: ProbeSet 11752001_a_at; LIST D

## Nc1ncn([C@@H]2O[C@H](CO)[C@@H](O)[C@H]2O)c(=O)n1 [azacitidine]
  RFU, CUL4A: 406.78 RFU
